Data reported in paper PMC7932537, “Quantitative profiling of protease specificity” (PLoS Computational Biology, 2021).

Legend:
MMP-9 = MMP-9 (Homo sapiens, UniProt P14780); assay: K(obs) of individual phage substrates (set of 1369); format: biochemical; conditions: MMP9
MMP-2 [1] = assay: Substrate phage display with NGS: relative probability (RP) of P3-P1' tetramer clusters; format: biochemical, human; conditions: MMP2;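 further: ratio of tetramer probability after protease selection to that in naive phage library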
MMP-2 [2] = target: T1, MMP-2 (Homo sapiens, UniProt P08253); assay: K(obs) of individual phage substrates (set of 1369); format: biochemical; conditions: MMP2
T1 sequence (P08253 110-660): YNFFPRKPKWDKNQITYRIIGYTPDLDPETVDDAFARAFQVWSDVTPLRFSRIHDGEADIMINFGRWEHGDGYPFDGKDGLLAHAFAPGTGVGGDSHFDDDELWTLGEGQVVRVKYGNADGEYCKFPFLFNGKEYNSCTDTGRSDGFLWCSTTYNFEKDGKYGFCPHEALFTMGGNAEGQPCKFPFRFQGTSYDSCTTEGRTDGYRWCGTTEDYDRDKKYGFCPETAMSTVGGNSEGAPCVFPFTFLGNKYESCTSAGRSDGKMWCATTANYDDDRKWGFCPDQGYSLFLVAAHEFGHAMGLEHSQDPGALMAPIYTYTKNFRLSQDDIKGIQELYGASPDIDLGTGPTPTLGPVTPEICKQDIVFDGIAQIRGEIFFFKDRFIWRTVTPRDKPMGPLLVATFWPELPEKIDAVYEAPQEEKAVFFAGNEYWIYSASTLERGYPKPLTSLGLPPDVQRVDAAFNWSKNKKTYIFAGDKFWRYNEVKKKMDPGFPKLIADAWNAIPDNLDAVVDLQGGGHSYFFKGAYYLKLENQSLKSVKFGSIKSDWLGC

[3] = individual phage substrates, set of 1369 peptides, hyphen in sequence marks cleavage position
[4] = RP of the P3-P1' tetramer contained in the substrate (substrate phage display with NGS)
[5] = individual phage substrates, set of 1369 peptides, cleavage position marked by hyphen in sequence
[6] = individual phage substrate of the set of 1369 peptides, dash in the sequence marks the cleavage position
[7] = RP of the P3-P1' tetramer contained in the substrate
[8] = individual phage substrate of the set of 1369 peptides, cleavage position marked by '-'

MMP-9, sequence (P14780 94-707): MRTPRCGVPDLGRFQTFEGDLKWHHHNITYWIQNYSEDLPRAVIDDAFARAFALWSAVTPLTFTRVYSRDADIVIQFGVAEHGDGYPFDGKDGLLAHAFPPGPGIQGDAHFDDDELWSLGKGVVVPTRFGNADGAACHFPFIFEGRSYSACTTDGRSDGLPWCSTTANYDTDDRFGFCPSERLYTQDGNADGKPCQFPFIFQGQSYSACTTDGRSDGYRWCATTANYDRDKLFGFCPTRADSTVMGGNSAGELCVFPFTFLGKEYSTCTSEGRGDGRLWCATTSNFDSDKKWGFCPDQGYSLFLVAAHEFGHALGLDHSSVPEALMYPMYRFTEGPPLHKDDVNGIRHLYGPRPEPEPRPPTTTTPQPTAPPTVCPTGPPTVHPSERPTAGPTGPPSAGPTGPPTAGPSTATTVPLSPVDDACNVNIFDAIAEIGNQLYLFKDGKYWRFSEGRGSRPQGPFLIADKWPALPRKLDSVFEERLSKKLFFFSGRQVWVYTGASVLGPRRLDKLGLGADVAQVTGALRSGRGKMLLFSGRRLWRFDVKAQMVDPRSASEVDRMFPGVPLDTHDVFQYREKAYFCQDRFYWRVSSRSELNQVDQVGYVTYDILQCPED

Row | Kobs (MMP-9; [3]) [M⁻¹ s⁻¹] | Kobs (MMP-2 [2]; [5]) [M⁻¹ s⁻¹] | Kobs (MMP-9; [6]) [M⁻¹ s⁻¹] | Kobs (MMP-2 [2]; [8]) [M⁻¹ s⁻¹] | Substance | relative probability (RP) (MMP-2 [1]; [4]) | relative probability (RP) (MMP-2 [1]; [7])
1 | 12792.1 | 10866.7 | – | – | PGPES-LTASG | 26.0767 | –
2 | – | – | 0 | 12792.1 | PHTAS-LTASG | – | 17.8872
3 | 12792.1 | 12792.1 | – | – | PIALH-WTASG | 5.12 | –
4 | 0 | 1030.73 | – | – | PKFSH-MTASG | 11.0227 | –
5 | – | – | 3850.82 | 2615.58 | PKGYA-LTASG | – | 0.5867
6 | – | – | 0 | 2409.72 | PKMSH-LTASG | – | 24.6165
7 | – | – | 619.843 | 355.093 | PKWHG-LTASG | – | 0.5588
8 | 12792.1 | 12792.1 | – | – | PMVRW-LTASG | 25.891 | –
9 | 5889.62 | 4205.91 | – | – | PQVWY-LTASG | 3.667 | –
10 | 27.918 | 1610.61 | – | – | PRLTH-LTASG | 4.299 | –
11 | – | – | 231.616 | 4205.91 | PRVEA-LTASG | – | 10.756
12 | – | – | 2615.58 | 6396.07 | PRVHH-LTASG | – | 14.1228
13 | 1112.44 | 142.481 | – | – | PRVML-LTASG | 0.4692 | –
14 | 2687.73 | 3165.09 | – | – | PRVWL-LTASG | 0.5351 | –
15 | – | – | 4470.66 | 10866.7 | PSWRA-LTASG | – | 22.4074
16 | – | – | 585.336 | 9740.44 | PTFAH-LTASG | – | 19.6504
17 | 142.481 | 4922.1 | – | – | PVFQS-LTASG | 13.5551 | –
18 | – | – | 12792.1 | 12792.1 | PYPVP-FTASG | – | 31.1155
19 | – | – | 9740.44 | 3438.54 | QAPMG-LTASG | – | 34.7865
20 | – | – | 12792.1 | 12792.1 | QEPRN-ITASG | – | 31.9621
21 | – | – | 12792.1 | 4205.91 | QGPWH-ITASG | – | 10.946
22 | 386.839 | 12792.1 | – | – | QHWGG-LTASG | 21.3794 | –
23 | 5269.78 | 2476.66 | – | – | QKVLN-MTASG | 19.025 | –

Row | Kobs (MMP-9; [3]) [M⁻¹ s⁻¹] | Kobs (MMP-2 [2]; [5]) [M⁻¹ s⁻¹] | Kobs (MMP-9; [6]) [M⁻¹ s⁻¹] | Kobs (MMP-2 [2]; [8]) [M⁻¹ s⁻¹] | Substance | relative probability (RP) (MMP-2 [1]; [4]) | relative probability (RP) (MMP-2 [1]; [7])
24 | – | – | 4922.1 | 12792.1 | QPLSW-VTASG | – | 11.7463
25 | 551.253 | 10866.7 | – | – | QRMAS-LTASG | 31.6834 | –
26 | 12792.1 | 12792.1 | – | – | QRPAQ-LTASG | 32.8467 | –
27 | – | – | 10866.7 | 10866.7 | QSPRM-LTASG | – | 30.5973
28 | 3741.87 | 1112.44 | – | – | QSWYG-MTASG | 0.05309 | –
29 | 231.616 | 0 | – | – | QVSWA-WTASG | 0.05632 | –
30 | – | – | 12792.1 | 12792.1 | RAPAS-LTASG | – | 36.4285
31 | – | – | 12792.1 | 2916.17 | RAPLH-MTASG | – | 30.0095
32 | 7815.03 | 5889.62 | – | – | RAPSM-LTASG | 33.0235 | –
33 | 261.974 | 9740.44 | – | – | RDLSH-LTASG | 29.8814 | –
34 | 3165.09 | 3438.54 | – | – | RDVLA-LTASG | 13.5229 | –
35 | – | – | 12792.1 | 12792.1 | REPLT-LTASG | – | 24.2603
36 | 9740.44 | 7015.91 | – | – | RFALN-LTASG | 17.2813 | –
37 | – | – | 12792.1 | 12792.1 | RFPRP-ITASG | – | 33.2176
38 | 12792.1 | 12792.1 | – | – | RGPYH-LTASG | 27.2418 | –
39 | 12792.1 | 6688.74 | – | – | RGPYM-LTASG | 24.9477 | –
40 | 292.668 | 12792.1 | – | – | RILGY-LTASG | 24.8925 | –
41 | – | – | 12792.1 | 12792.1 | RIPAS-LTASG | – | 36.4285
42 | – | – | 12792.1 | 12792.1 | RIPRF-LTASG | – | 28.4443
43 | – | – | 3253.29 | 8321.48 | RKPAP-WTASG | – | 31.7353
44 | 201.585 | 0 | – | – | RKVRN-WTASG | 17.7682 | –
45 | – | – | 619.843 | 3741.87 | RLANA-LTASG | – | 20.3526
46 | – | – | 484.315 | 5461.43 | RLANN-LTASG | – | 18.8719

Row | Kobs (MMP-9; [3]) [M⁻¹ s⁻¹] | Kobs (MMP-2 [2]; [5]) [M⁻¹ s⁻¹] | Kobs (MMP-9; [6]) [M⁻¹ s⁻¹] | Kobs (MMP-2 [2]; [8]) [M⁻¹ s⁻¹] | Substance | relative probability (RP) (MMP-2 [1]; [4]) | relative probability (RP) (MMP-2 [1]; [7])
47 | 1112.44 | 2916.17 | – | – | RLLLN-MTASG | 13.7728 | –
48 | – | – | 12792.1 | 12792.1 | RLPVA-ITASG | – | 32.4892
49 | – | – | 12792.1 | 7815.03 | RLPVH-YTASG | – | 23.3589
50 | – | – | 12792.1 | 5667.28 | RLPWS-LTASG | – | 28.5684
51 | 0 | 0 | – | – | RLYMN-ITASG | 0 | –
52 | 113.394 | 12792.1 | – | – | RMLAQ-LTASG | 25.841 | –
53 | 0 | 0 | – | – | RNGLA-LTASG | 0.6848 | –
54 | 4763.33 | 2996.69 | – | – | RNPEW-MTASG | 12.3271 | –
55 | – | – | 12792.1 | 7386.83 | RPPLA-FTASG | – | 31.4142
56 | 9740.44 | 10866.7 | – | – | RPPSS-LTASG | 35.4913 | –
57 | – | – | 355.093 | 4205.91 | RQLAA-ITASG | – | 28.8382
58 | 27.918 | 10866.7 | – | – | RQLAH-ITASG | 25.9365 | –
59 | 7015.91 | 8321.48 | – | – | RQVRY-LTASG | 18.3724 | –
60 | – | – | 4470.66 | 5889.62 | RQWRA-LTASG | – | 22.4074
61 | – | – | 4922.1 | 142.481 | RQWYG-ITASG | – | 0.0533
62 | – | – | 12792.1 | 12792.1 | RRPTN-LTASG | – | 31.0288
63 | 1660.66 | 171.876 | – | – | RRVLM-MTASG | 2.736 | –
64 | 0 | 12792.1 | – | – | RSHAS-LTASG | 26.2573 | –
65 | – | – | 5667.28 | 12792.1 | RTAHN-LTASG | – | 23.7113
66 | – | – | 84.609 | 8321.48 | RTASH-LTASG | – | 19.8208
67 | – | – | 0 | 1283.43 | RTGLY-LTASG | – | 0.07615
68 | 261.974 | 619.843 | – | – | RTMLH-MTASG | 4.713 | –
69 | – | – | 12792.1 | 9740.44 | RTPIG-ITASG | – | 31.281
